Data from patent publication US6919306B2, “Method of skin care” (Yaizu Suisankagaku Industry Co. Ltd., priority 1999, dated 2005).
Marks after values point to notes of the source that are not given here.

What was measured:
skin surface = assay: Microscopic three-dimensional skin surface analysis (VISIOSCAN); type: in vivo, human; parameters: key to SEsc (Ideal value: Lowest value), Below left eye / SEsc (Ideal value: Lowest value), Left upper arm: SEsc = I/(Nx×Ny)×100; lower = more moist, less scaling; key to SEsm (Ideal value: Lowest value), Left upper arm / SEsm (Ideal value: Lowest value), Below left eye: SEsm = (Co−Cu)×(Fmx−Fmy)×K; lower = smoother skin; SWw (Ideal value: Lowest value), Below left eye / SWw (Ideal value: Lowest value), Left upper arm: scale not given here; details: for Kurtosis (Ideal value: 0), Below left eye / Kurtosis (Ideal value: 0), Left upper arm / Kurtosis (Ideal value: 0), Poll / SEr (Ideal value: Lowest value), Below left eye / SEr (Ideal value: Lowest value), Left upper arm / SEr (Ideal value: Lowest value), Poll / SEsc (Ideal value: Lowest value), Below left eye / SEsc (Ideal value: Lowest value), Left upper arm / SEsc (Ideal value: Lowest value), Poll / SEsm (Ideal value: Lowest value), Below left eye / SEsm (Ideal value: Lowest value), Left upper arm / SEsm (Ideal value: Lowest value), Poll / SWw (Ideal value: Lowest value), Below left eye / SWw (Ideal value: Lowest value), Left upper arm / SWw (Ideal value: Lowest value), Poll: NAG 1,000 mg/day oral; for SEr (Ideal value: Lowest value), Below left eye / SEr (Ideal value: Lowest value), Left upper arm / SEr (Ideal value: Lowest value), Poll: skin roughness; for SEsc (Ideal value: Lowest value), Below left eye / SEsc (Ideal value: Lowest value), Left upper arm / SEsc (Ideal value: Lowest value), Poll: skin scaliness; for SEsm (Ideal value: Lowest value), Below left eye / SEsm (Ideal value: Lowest value), Left upper arm / SEsm (Ideal value: Lowest value), Poll: skin smoothness; for SWw (Ideal value: Lowest value), Below left eye / SWw (Ideal value: Lowest value), Left upper arm / SWw (Ideal value: Lowest value), Poll: skin wrinkles
Experimental: To 22 females usually having a tendency of xeroderma and rough skin (average age: 25.5±10.7), a double blind long-term ingestion study was carried out in the following manners provided that a […] were given to a control group.
NAG-containing tablets-administered group (NAG group, n=11): Tablets prepared similarly as in Example 1 as described below (NAG amount: 200 mg/tablet), were ingested at a rate of 5 tablets/day (NAG 1,000 mg/day, as a daily dose).
The ingestion period was 8 weeks in each group. The inspection was in principle carried out just before the start of ingestion, 4 weeks after the start of ingestion, and just before the completion of ingestion (8 weeks after the start of ingestion).
This analysis was conducted by using a digital analyzer of the skin surface (VISIONSCAN: manufactured by Courage+Khazaka Electronic Gmbh). In use of this apparatus, the skin surface was irradiated with special ultraviolet ray source, and the image is taken by a high performance CCD camera and digitalized for evaluation. The following factors were sampled as parameters.
This value is calculated from the average of the width and depth of wrinkles by the following formula (i), and one of indices which show the smoothness of skin. The smaller this value is, the smoother the skin surface is. SEsm=(Co−Cu)×(Fmx−Fmy)×K (i) • Fmx: average width of furrows for the row analysis. • Fmy: average width of furrows for the column analysis. • Co: right frontier of the histogram whose calculation is based on a set-up values. • Cu: left frontier of the histogram whose calculation is based on a set-up values. • K: factor
This value is obtained by calculating the ratio of points darker than the set-up points in the whole image and further calculating by the following formula (ii), and one of indices which show the roughness of skin. The higher the value is, the rougher the skin is. SEr=I/(Nx×Ny)×100 (ii) • I: counter whose start value is 0 and which is incremented each time the gray value of the current point is smaller than the threshold issued from the set-up programs. • Nx: amount of point per row. • Ny: amount of point per column.
Epidermolysis parts are counted to be brighter than the set-up values in the image. The SEsc value is obtained by calculating the ratio of these parts relative to the entire part by the following formula (iii), and is one of indices which show the dryness of scale (corneum). The lower the value is, the more moist and the less epidermolysis (scale). SEsc=I/(Nx×Ny)×100 (iii) • I: counter whose start value is 0 and which is incremented each time the gray value of the current point is bigger than the threshold issued from the set-up programs. • Nx: amount of point per row. • Ny: amount of point per column.
The higher the value is, the more the number of wrinkle is and the wider the width of wrinkles is. SEw=Fmx×Fmy/(Fax×Fay)×Fay/Fax×K (iv) • Fax: amount of furrows for the row analysis. • Fmx: average width of furrows for the row analysis. • Fay: amount of furrows for the column analysis. • Fmy: average width of furrows for the column analysis. • K: factor
The closer to 0 the value is, the smoother in curve the hue point is and the closer to ideal skin.

[1] = NAG kinetics study with 14C labelled NAG; type: in vivo; details: rats, single forced oral 250 mg/kg of body weight
Experimental: A mixture of ^14C labelled NAG (1 st-position carbon atom-labelled product: manufactured by Amasham Life Science Co.) and unlabelled NAG (the one prepared in PREPARATION EXAMPLE 1) was given to rats by single forced oral administration (250 mg/kg of body weight) for in vivo kinetics study. […] About 60% of the administered NAG was utilized as an energy source and excreted as CO2 to expiration. Further, about 20% was excreted to urine and stool.

[2] = tested on: skin conditions of adult female volunteers; assay: Questionnaire on skin conditions after tablet ingestion; type: in vivo, human; details: NAG 1.2 g per day oral tablets, 60 days
Experimental: 20 adult female volunteers of age ranging from 25 to 45 years old were classified into two groups i.e. a test group and a control group. They were asked to take tablets prepared similarly as in Example 1 as described below at a rate of […], twice a day (NAG ingestion amount per day: 1.2 g) together with water, provided that the tablets for the control group were prepared by using lactose as a placebo instead of NAG. The test period was 60 days, and after the completion of test, they were questioned about skin conditions and the like by questionnaires. No particular restriction was made with respect to diet, makeup and the like during the test period.

With `CC(=O)N[C@H]1C(O)O[C@H](CO)[C@@H](O)[C@@H]1O` (stereo partly drawn) [NAG, N-acetylglucosamine] the “Kurtosis (Ideal value: 0), Below left eye” value (“Kurtosis … Below left eye” below) (skin surface; after 4 weeks) was 0.34, the “Kurtosis (Ideal value: 0), Left upper arm” value (“Kurtosis … Left upper arm” for short) (skin surface; after 4 weeks) was 0.40 and the “Kurtosis (Ideal value: 0), Poll” value (skin surface; after 4 weeks) was 0.39. For the same compound, the “Kurtosis … Below left eye” value (skin surface; after 8 weeks) was 0.30, the “Kurtosis … Left upper arm” value (skin surface; after 8 weeks) was 0.50 and the “Kurtosis (Ideal value: 0), Poll” value (skin surface; after 8 weeks) was 0.39. The “Kurtosis … Below left eye” value (skin surface; before ingestion) was 0.58, the “Kurtosis … Left upper arm” value (skin surface; before ingestion) was 0.97 and the “Kurtosis (Ideal value: 0), Poll” value (skin surface; before ingestion) was 0.79. For the same compound, the “SEsm value and SEsc value at the poll, change” value (skin surface; NAG group, 1,000 mg/day oral, 8 weeks) was “significant decrease”, the “SEr (Ideal value: Lowest value), Below left eye” value (from here on “SEr … Below left eye”) (skin surface; after 4 weeks) was 0.26 and the “SEr (Ideal value: Lowest value), Left upper arm” value (shortened to “SEr … Left upper arm”) (skin surface; after 4 weeks) was 0.22. The “SEr (Ideal value: Lowest value), Poll” value (skin surface; after 4 weeks) was 0.32, the “SEr … Below left eye” value (skin surface; after 8 weeks) was 0.21 and the “SEr … Left upper arm” value (skin surface; after 8 weeks) was 0.28. The “SEr (Ideal value: Lowest value), Poll” value (skin surface; after 8 weeks) was 0.40, the “SEr … Below left eye” value (skin surface; before ingestion) was 0.25 and the “SEr … Left upper arm” value (skin surface; before ingestion) was 0.30. For the same compound, the “SEr (Ideal value: Lowest value), Poll” value (skin surface; before ingestion) was 0.51, the “SEsc (Ideal value: Lowest value), Below left eye” value (“SEsc … Below left eye” below) (skin surface; after 4 weeks) was 137.0 and the “SEsc (Ideal value: Lowest value), Left upper arm” value (shortened to “SEsc … Left upper arm”) (skin surface; after 4 weeks) was 195.8. For the same compound, the “SEsc (Ideal value: Lowest value), Poll” value (skin surface; after 4 weeks) was 201.6, the “SEsc … Below left eye” value (skin surface; after 8 weeks) was 133.0 and the “SEsc … Left upper arm” value (skin surface; after 8 weeks) was 202.4. For the same compound, the “SEsc (Ideal value: Lowest value), Poll” value (skin surface; after 8 weeks, p < 0.05) was 169.3*, the “SEsc … Below left eye” value (skin surface; before ingestion) was 238.4 and the “SEsc … Left upper arm” value (skin surface; before ingestion) was 342.9. The “SEsc (Ideal value: Lowest value), Poll” value (skin surface; before ingestion) was 352.4, the “SEsm (Ideal value: Lowest value), Below left eye” value (“SEsm … Below left eye” for short) (skin surface; after 4 weeks) was 337.6 and the “SEsm (Ideal value: Lowest value), Left upper arm” value (“SEsm … Left upper arm” below) (skin surface; after 4 weeks) was 324.7. For the same compound, the “SEsm (Ideal value: Lowest value), Poll” value (skin surface; after 4 weeks, p < 0.05) was 338.9*, the “SEsm … Below left eye” value (skin surface; after 8 weeks) was 309.4 and the “SEsm … Left upper arm” value (skin surface; after 8 weeks) was 379.9. For the same compound, the “SEsm (Ideal value: Lowest value), Poll” value (skin surface; after 8 weeks, p < 0.05) was 345.2*, the “SEsm … Below left eye” value (skin surface; before ingestion) was 378.1 and the “SEsm … Left upper arm” value (skin surface; before ingestion) was 384.7. For the same compound, the “SEsm (Ideal value: Lowest value), Poll” value (skin surface; before ingestion) was 443.8, the “SWw (Ideal value: Lowest value), Below left eye” value (shortened to “SWw … Below left eye”) (skin surface; after 4 weeks) was 29.0 and the “SWw (Ideal value: Lowest value), Left upper arm” value (“SWw … Left upper arm” below) (skin surface; after 4 weeks) was 26.4. For the same compound, the “SWw (Ideal value: Lowest value), Poll” value (skin surface; after 4 weeks) was 23.4, the “SWw … Below left eye” value (skin surface; after 8 weeks) was 27.8 and the “SWw … Left upper arm” value (skin surface; after 8 weeks) was 31.9. For the same compound, the “SWw (Ideal value: Lowest value), Poll” value (skin surface; after 8 weeks) was 29.5, the “SWw … Below left eye” value (skin surface; before ingestion) was 33.2 and the “SWw … Left upper arm” value (skin surface; before ingestion) was 30.2. For the same compound, the “SWw (Ideal value: Lowest value), Poll” value (skin surface; before ingestion) was 27.3, the “absorption after oral administration” value [1] was “rapidly absorbed” and the “share excreted to urine and stool” value [1] was “about 20%”. For the same compound, the “time at which average concentration of radioactivity in blood reached the maximum value” [1] was 4 h, the “residual transferred to tissues (e.g. cartilaginous and fatty tissues)” value ([1]; autoradiography and tissue radioactivity) was “about 20%” and the skin-beautification effect ([2]; versus placebo region) was “recognized”. For the same compound, the “Fine wrinkles decreased (number of persons)” value ([2]; test region, placebo 1) was 5, the “Skin conditions worsened as a whole (number of persons)” value ([2]; test region, placebo 1) was 0 and the “Feel moistness in skin (number of persons)” value ([2]; test region, placebo 2) was 7. The “Feel tension in skin (number of persons)” value ([2]; test region, placebo 2) was 6, the “Skin conditions improved as a whole (number of persons)” value ([2]; test region, placebo 2) was 8 and the “No change (including unidentified) (number of persons)” value ([2]; test region, placebo 5) was 2.
